Measurements as given in ChEMBL document CHEMBL1149744, “Terpenoids and Alkaloids from Esenbeckia belizencis. Spontaneous Oxidation of Furoquinoline Alkaloids” (J Nat Prod, 1992).

Test system: Artemia salina
Assay: Toxicity against Artemia salina
Format: organism-based
Conditions: in vivo

Row | SMILES | LC50 [ppm]
1 | COc1c2ccoc2nc2c(OC)c3c(cc12)OCO3 [FLINDERSIAMINE] | > 1000
2 | COc1cc2nc3occc3c(OC)c2cc1OC [KOKUSAGININE] | 367
